Data as given in patent publication US20170296616A1, “METHODS OF TREATING DEPRESSION USING NMDA MODULATORS” (Naurex, Inc., priority 2014, published 2017).
Residues, ends and D or L forms follow the SMILES beside them.

Legend:
[1] = test system: patients suffering with refractory depression; settings: cited from earlier work; for change in Hamilton Depression Rating Score: patients with refractory depression; for side effects: reported for the NMDAR antagonists
[2] = cited from earlier work
[3] = test system: long-term potentiation (LTP); test: Long-term potentiation (LTP) after single or multiple bi-weekly doses (FIG. 3)
[4] = test system: subjects with MDD that had responded inadequately to another antidepressant agent; test: Repeat dose study of adjunctive GLYX-13 in human subjects (randomized withdrawal design); type: in vivo; settings: for reduction of CGI-I score: baseline 4.3-4.6
Experimental: A repeat dose study was conducted on human subjects using adjunctive dosing (patients were currently taking another antidepressant medication). Dose levels of 5 mg/kg and 10 mg/kg were used with weekly or biweekly dose during an initial, stabilization period, as shown in FIGS. 7A and 7B (showing typical design of randomized withdrawal maintenance study). The disposition of the subjects, as indicated in FIGS. 7A and 7B was 144 nonresponders and […], where of the responders (70 patients assigned to weekly dosing, 36 patients assigned to biweekly dosing, 55 patients randomized to placebo). […] The study was blinded to third party raters (HDRS-17) and to clinicians of the treatment group (CGI-S).
Methods. GLYX-13 was administered over 12 weeks to subjects who had responded inadequately to another antidepressant agent. Subjects continued taking the other antidepressant during the entire course of the study. The study was divided into 3 parts. During the first 6 weeks, subjects were randomized to receive GLYX-13 at 5 mg/kg IV or 10 mg/kg IV. Subjects returned to the clinic weekly. If subjects had reached clinical response (HDRS-17 reduced ≧50% from baseline) to GLYX-13 administered the previous week, placebo was administered weekly until relapse (HDRS-17 reduced <50% from baseline). At the 6th week of evaluation, subjects who had achieved response to GLYX-13 at some visit were assigned to weekly or biweekly dosing based on time to relapse during placebo administration and randomized to continue receiving GLYX-13 or placebo (randomized withdrawal) for a subsequent 6 weeks of dosing. At the end of the randomized withdrawal period, subjects received placebo injections for 4 weeks. Subjects were blind to the treatments. Third party evaluators blind to treatment and protocol were utilized. Treatment dose and interval were calculated by an interactive web-based response system based on a mathematical algorithm; site personnel were blinded to treatment.

[5] = end of randomized withdrawal period, biweekly doses

In the case of `C[C@@H]([C@@H](O)c1ccc(O)cc1)N1CCC(O)(c2ccccc2)CC1` [CPC-101,606], the “change in Hamilton Depression Rating Score” value [1] is listed as “significant reductions” and the side effects [1] is listed as “reportedly severe”.
In the case of `C[C@@H](O)[C@H](N)C(=O)N1CCC[C@H]1C(=O)N1CCC[C@H]1C(=O)N[C@H](C(N)=O)[C@@H](C)O` [GLYX-13] (H-TPPT-NH2), the psychotomimetic side effects ([2]; compared with other drugs that target the NMDA receptor) is listed as “lack the pyschotomimetic side effects”, the antidepressant activity ([2]; in vivo) is listed as “rapid-acting, robust, and sustained antidepressant activity” and the “effect on long-term potentiation (LTP)” value ([3]; 24 hours and one week following a single dose) is listed as “enhances long-term potentiation”. For the same compound, the “effect on long-term potentiation (LTP)” value ([3]; following multiple bi-weekly doses) was “persistently enhances LTP”, the “improvements on HDRS scale during the rest period (randomized withdrawal)” value ([4]; FIG. 1, compared with the induction (stabilization) period) was “generally maintained” and the “improvements on Bech-6 scale during the rest period (randomized withdrawal)” value ([4]; FIG. 4, compared with the induction (stabilization) period) was “generally maintained”. For the same compound, the “improvements on CGI-S scale during the rest period” value ([4]; FIG. 5, Week 7 and Week 13) was “generally maintained”, the “subjects that relapsed more slowly” value ([4]; assigned to biweekly dosing in the randomized withdrawal period) was 33% and the “responders that relapsed within 2 weeks following cessation of GLYX-13” value ([4]; assigned to weekly dosing in the randomized withdrawal period) was “Approximately 67%”. The “responders that relapsed quickly during early treatment” value ([4]; early treatment) was “About two-thirds”, the “responders that relapsed slowly, even during early treatment” value ([4]; early treatment) was “About one-third” and the “reduction of CGI-I score” value ([4]; end of randomized withdrawal period, 5 mg/kg IV weekly dose group) was 2.5 ± 0.14. For the same compound, the “percent of subjects that achieved remission” value ([4]; end of randomized withdrawal period, 5 mg/kg weekly group vs biweekly dose groups) was “not statistically different from the biweekly dose groups”, the “reduction of CGI-I score” value ([4]; end of randomized withdrawal period, 10 mg/kg IV group) was 1.6±0.15 and the “subjects that reached remission (HDRS score <=7)” value ([4]; end of randomized withdrawal period, 10 mg/kg weekly) was 42%. The “subjects that achieved remission (HDRS score <=7)” value [4, 5] was 45%, the “subjects that achieved response” value [4, 5] was 65% and the “reduction of CGI-I score” value ([4]; end of randomized withdrawal period, biweekly groups) was 2.5±0.12. For the same compound, the “HDRS-17 score in responders” value ([4]; following 6 weeks of dosing, baseline 23.5±0.34, mean±S.E.M.) was 10.3±0.65, the “time after withdrawal of GLYX-13 without return of HDRS-17 score toward baseline” value ([4]; following 6 weeks of dosing, placebo thereafter) was “up to 10 weeks” and the “efficacy following forced relapse” value ([4]; repeated crossover GLYX-13 / placebo (FIG. 6)) was “Efficacy was reestablished following forced relapse”. The “side effects with repeated dosing” value ([4]; repeated dosing) was “without significant side effect”, the “tolerance with repeated dosing” value ([4]; repeated dosing) was “no tolerance apparent” and the “ultimate responders that showed response after one dose” value ([4]; stabilization phase, 5 or 10 mg/kg, after one dose) was ~65%. The “ultimate responders that showed response after three doses” value ([4]; stabilization phase, after three doses) was ~85% and the “ultimate responders that showed response after two doses” value ([4]; stabilization phase, after two doses) was ~72%.
In the case of `CNC1(c2ccccc2Cl)CCCCC1=O` (stereo not drawn) [ketamine], the “change in Hamilton Depression Rating Score” value [1] is given as “significant reductions” and the side effects [1] is given as “reportedly severe”.
